Results taken from US10961238B2, “Modulators of hedgehog (Hh) signaling pathway” (E-THERAPEUTICS PLC, priority 2016, dated 2021).

Test system: C3H10T1/2 cells
Assay: C3H assay: differentiation of C3H10T1/2 cells by mSHH, measurement of alkaline phosphatase
Type: cell-based, mouse
Conditions: Mus musculus, C3H 10T1/2; C3H10T1/2 cells stimulated with mSHH for 72 hours; alkaline phosphatase activity; read-out: IC50 Ranges

IC50 [nM] | Structure (SMILES)
1000 to 10000 | N#Cc1ccnc(N2CC(S(=O)(=O)N3CCC(c4ccncc4)CC3)C2)c1 [Compound 258, 2-[3-(4-pyridin-4-ylpiperidin-1-yl)sulfonylaze-tidin-1-yl]pyridine-4-carbonitrile]
100 to 1000 | O=S(=O)(C1CN(Cc2ccc[nH]2)C1)N1CCC(c2c[nH]c3ncccc23)CC1 [Compound 69, 3-[1-[1-(1H-pyrrol-2-ylmethyl)azetidin-3-yl]sulfonylpiper-idin-4-yl]-1H-pyrrolo[2,3-b]pyridine]
10 to 100 | CCN(C(=O)N1CC(S(=O)(=O)N2CCC(c3c[nH]c4ncccc34)CC2)C1)C(C)C [Compound 206, N-ethyl-N-propan-2-yl-3-[4-(1H-pyrrolo[2,3-b]pyridin-3-yl)piperidin-1-yl]sulfonylaze-tidine-1-carboxamide]
10 to 100 | CC(C)(C(=O)N1CC(S(=O)(=O)N2CCC(c3coc4cccnc34)CC2)C1)C(F)(F)F [Compound 404, 3,3,3-trifluoro-1-[3-(4-furo[3,2-b]pyridin-3-ylpiperidin-1-yl)sulfonylaze-tidin-1-yl]-2,2-dimethylpropan-1-one]
1000 to 10000 | COC(=O)N1CCC(S(=O)(=O)N2CCC(c3ccncc3)CC2)CC1 [Compound 106, methyl 4-(4-pyridin-4-ylpiperidin-1-yl)sulfonylpiper-idine-1-carboxylate]
100 to 1000 | CN1CCC(COC(=O)N2CC(S(=O)(=O)N3CCC(c4c[nH]c5ncccc45)CC3)C2)CC1 [Compound 51, (1-methylpiperidin-4-yl)methyl 3-[4-(1H-pyrrolo [2,3-b]pyridin-3-yl)piperidin-1-yl]sulfonylaze-tidine-1-carboxylate]
< 10 | CN(C(=O)N1CC(S(=O)(=O)N2CCC(c3c[nH]c4ncccc34)CC2)C1)C(C)(C)C [Compound 176, N-tert-butyl-N-methyl-3-[4-(1H-pyrrolo[2,3-b]pyridin-3-yl)piperidin-1-yl]sulfonylaze-tidine-1-carboxamide]
10 to 100 | Cc1noc(C)c1CC(=O)N1CC(S(=O)(=O)N2CCC(c3ccncc3)CC2)C1 [Compound 205, 2-(3,5-dimethyl-1,2-oxazol-4-yl)-1-[3-(4-pyridin-4-ylpiperidin-1-yl)sulfonylaze-tidin-1-yl]ethanone]
1000 to 10000 | O=C(c1ccncc1)N1CC(S(=O)(=O)N2CCC(c3c[nH]c4ncccc34)CC2)C1 [Compound 72, pyridin-4-yl-[3-[4-(1H-pyrrolo[2,3-b]pyridin-3-yl)piperidin-1-yl]sulfonylaze-tidin-1-yl]methanone]
1000 to 10000 | CC(C)(C)OC(=O)N1CC(S(=O)(=O)N2CCC(c3nc4ccccc4[nH]3)CC2)C1 [Compound 299, tert-butyl 3-[4-(1H-benzimidazol-2-yl)piperidin-1-yl]sulfonylaze-tidine-1-carboxylate]
100 to 1000 | O=C(OC1CCCCC1)N1CC(S(=O)(=O)N2CCC(c3ccncc3)CC2)C1 [Compound 264, cyclohexyl 3-(4-pyridin-4-ylpiperidin-1-yl)sulfonylaze-tidine-1-carboxylate]
100 to 1000 | Cn1ccc(CNC(=O)N2CC(S(=O)(=O)N3CCC(c4c[nH]c5ncccc45)CC3)C2)n1 [Compound 81, N-[(1-Methylpyrazol-3-yl)methyl]-3-[[4-(1H-pyrrolo[2,3-b]pyridin-3-yl)-1-piperidyl]sulfonyl]azetidine-1-carboxamide]
10 to 100 | COc1cccc(OC(=O)N2CC(S(=O)(=O)N3CCC(c4c[nH]c5ncccc45)CC3)C2)c1 [Compound 215, (3-methoxyphenyl) 3-[4-(1H-pyrrolo[2,3-b]pyridin-3-yl)piperidin-1-yl]sulfonylaze-tidine-1-carboxylate]
10 to 100 | CC(C)(C)OC(=O)N1CCC(S(=O)(=O)N2CCC(c3c[nH]c4ncccc34)CC2)CC1 [Compound 19, tert-butyl 4-[4-(1H-pyrrolo[2,3-b]pyridin-3-yl)piperidin-1-yl]sulfonylpiper-idine-1-carboxylate]
100 to 1000 | CC(C)(O)CC(=O)N1CC(S(=O)(=O)N2CCC(c3coc4cccnc34)CC2)C1 [Compound 398, 1-[3-(4-furo[3,2-b]pyridin-3-ylpiperidin-1-yl)sulfonylaze-tidin-1-yl]-3-hydroxy-3-methylbutan-1-one]
10 to 100 | O=C(OCC1CCC1)N1CC(S(=O)(=O)N2CCC(c3c[nH]c4ncccc34)CC2)C1 [Compound 201, cyclobutylmethyl 3-[4-(1H-pyrrolo[2,3-b]pyridin-3-yl)piperidin-1-yl]sulfonylaze-tidine-1-carboxylate]
100 to 1000 | Cc1ccc(S(=O)(=O)n2ccc3c(C4=CCN(S(=O)(=O)C5CCN(C(=O)OC(C)(C)C)CC5)CC4)ccnc32)cc1 [Compound 237, tert-butyl 4-[[4-[1-(4-methylphenyl)sulfonylpyrrolo [2,3-b]pyridin-dihydro-2H-pyridin-1-yl]sulfonyl]piperidine-1-carboxylate]
10 to 100 | O=C(Oc1ccc(F)cc1)N1CC(S(=O)(=O)N2CCC(c3c[nH]c4ncccc34)CC2)C1 [Compound 77, (4-fluorophenyl) 3-[4-(1H-pyrrolo[2,3-b]pyridin-3-yl)piperidin-1-yl]sulfonylaze-tidine-1-carboxylate]

IC50 [nM] | Structure (SMILES)
10 to 100 | Cc1noc(C)c1NC(=O)N1CC(S(=O)(=O)N2CCC(c3c[nH]c4nccnc34)CC2)C1 [Compound 43, N-(3,5-dimethyl-1,2-oxazol-4-yl)-3-[4-(5H-pyrrolo [2,3-b]pyrazin-7-yl)piperidin-1-yl]sulfonylaze-tidine-1-carboxamide]
10 to 100 | O=C(CC(O)(C(F)(F)F)C(F)(F)F)N1CC(S(=O)(=O)N2CCC(c3c[nH]c4cccnc34)CC2)C1 [Compound 379, 4,4,4-trifluoro-3-hydroxy-1-[3-[4-(1H-pyrrolo[3,2-b]pyridin-3-yl)piperidin-1-yl]sulfonylaze-tidin-1-yl]-3-(trifluoromethyl) butan-1-one]
10 to 100 | CC(C)(C)OC(=O)N1CC(S(=O)(=O)N2CCC(c3c[nH]c4ncccc34)CC2)C1 [Compound 110, tert-butyl 3-[4-(1H-pyrrolo[2,3-b]pyridin-3-yl)piperidin-1-yl]sulfonylaze-tidine-1-carboxylate]
100 to 1000 | Cc1nn(C)c(C)c1CNC(=O)N1CC(S(=O)(=O)N2CCC(c3c[nH]c4ncccc34)CC2)C1 [Compound 95, 3-[4-(1H-pyrrolo[2,3-b]pyridin-3-yl)piperidin-1-yl]sulfonyl-N-[(1,3,5-trimethylpyrazol-4-yl)methyl]azetidine-1-carboxamide]
100 to 1000 | CC(C)N(C(=O)N1CC(S(=O)(=O)N2CCC(c3c[nH]c4ncccc34)CC2)C1)C(C)C [Compound 173, N,N-Diisopropyl-3-[[4-(1H-pyrrolo[2,3-b]pyridin-3-yl)-1-piperidyl]sulfonyl]azetidine-1-carboxamide]
100 to 1000 | N#Cc1ccc(C2CCN(S(=O)(=O)C3CN(C(=O)CC(O)(C(F)(F)F)C(F)(F)F)C3)CC2)cc1 [Compound 351]
100 to 1000 | CC(C)(C)OC(=O)N1CCC(S(=O)(=O)N2CCC(c3c[nH]c4ccccc34)CC2)CC1 [Compound 133, tert-butyl 4-[4-(1H-indol-3-yl)piperidin-1-yl]sulfonylpiper-idine-1-carboxylate]
100 to 1000 | CC(C)(C)C(=O)N1CC(S(=O)(=O)N2CCC(c3c[nH]c4ncccc34)CC2)C1 [Compound 73, 2,2-dimethyl-1-[3-[4-(1H-pyrrolo[2,3-b]pyridin-3-yl)piperidin-1-yl]sulfonylaze-tidin-1-yl]propan-1-one]
10 to 100 | O=C(C1CCCCC1)N1CC(S(=O)(=O)N2CCC(c3c[nH]c4ncccc34)CC2)C1 [Compound 189, Cyclohexyl-[3-[[4-(1H-pyrrolo[2,3-b]pyridin-3-yl)-1-piperidyl]sulfonyl]azetidin-1-yl]methanone]
10 to 100 | O=C(OCc1cccc(Oc2ccccc2)c1)N1CC(S(=O)(=O)N2CCC(c3c[nH]c4ncccc34)CC2)C1 [Compound 207, (3-phenoxyphenyl) methyl 3-[4-(1H-pyrrolo [2,3-b]pyridin-3-yl)piperidin-1-yl]sulfonylaze-tidine-1-carboxylate]
100 to 1000 | COc1ccc(C(F)(F)F)c(N2CC(S(=O)(=O)N3CCC(c4c[nH]c5ncccc45)CC3)C2)n1 [Compound 185, 3-[1-[1-[6-methoxy-3-(trifluoromethyl)pyridin-2-yl]azetidin-3-yl]sulfonylpiper-idin-4-yl]-1H-pyrrolo[2,3-b]pyridine]
100 to 1000 | CC(C)(C)NC(=O)N1CC(S(=O)(=O)N2CCC(c3ccc(C#N)cc3)CC2)C1 [Compound 352, N-tert-butyl-3-[4-(4-cyanophenyl)piperidin-1-yl] sulfonylazetidine-1-carboxamide]
100 to 1000 | CC(C)(C)OC(=O)N1CCC(S(=O)(=O)N2CC=C(c3csc4cccnc34)CC2)CC1 [Compound 230, tert-butyl 4-[(4-thieno[3,2-b]pyridin-3-yl-3,6-dihydro-2H-pyridin-1-yl)sulfonyl]pip eridine-1-carboxylate]
10 to 100 | CC(C)[C@H](CO)NC(=O)N1CC(S(=O)(=O)N2CCC(c3c[nH]c4ncccc34)CC2)C1 [Compound 251, N-[(2R)-1-hydroxy-3-methylbutan-2-yl]-3-[4-(1H-pyrrolo[2,3-b]pyridin-3-yl)piperidin-1-yl]sulfonylaze-tidine-1-carboxamide]
100 to 1000 | CC(C)(C)OC(=O)N1CC(S(=O)(=O)N2CCC(c3c[nH]c4nccc(F)c34)CC2)C1 [Compound 221, tert-butyl 3-[4-(4-fluoro-1H-pyrrolo[2,3-b]pyridin-3-yl)piperidin-1-yl]sulfonylaze-tidine-1-carboxylate]
10 to 100 | Cc1noc(C)c1NC(=O)N1CC(S(=O)(=O)N2CCC(c3c[nH]c4cccnc34)CC2)C1 [Compound 39, N-(3,5-dimethyl-1,2-oxazol-4-yl)-3-[4-(1H-pyrrolo[3,2-b]pyridin-3-yl)piperidin-1-yl]sulfonylaze-tidine-1-carboxamide]
10 to 100 | Cc1cccc(C)c1NC(=O)N1CC(S(=O)(=O)N2CCC(c3coc4cccnc34)CC2)C1 [Compound 382, N-(2,6-dimethylphenyl)-3-(4-furo[3,2-b]pyridin-3-ylpiperidin-1-yl)sulfonylaze-tidine-1-carboxamide]
